What follows are compounds tested on HCV replicon (assay: microbe, parasite or virus in culture). Settings: Hepatitis C virus, 48 h, read-out: Replicon IC5Os.
Format: cell-based

Compound | IC50
CCC(C)OC(=O)Nc1cccc(-c2c(C#N)c3ccc(OC)cc3n2CC)c1 (stereo not shown) [Compound 349] | < 500 nM
C#CCOC(=O)Nc1cccc(-c2c(C#N)c3ccc(OC)cc3n2CC)c1 [Compound 350] | 500 to 2000 nM
C=CC(C)OC(=O)Nc1cccc(-c2c(C#N)c3ccc(OC)cc3n2CC)c1 (stereo not shown) [Compound 351] | 500 to 2000 nM
CCn1c(-c2cccc(NC(=O)OC)c2)c(C#N)c2ccc(OC)cc21 [Compound 353] | < 500 nM
CCn1c(-c2ccc(NS(C)(=O)=O)cc2)c(C#N)c2ccc(C(F)(F)F)cc21 [Compound 365] | < 500 nM

Same assay, conditions: Replicon IC50 values are determined by firefly luciferase signal; bicistronic replicon, 2 days; read-out: Replicon IC5Os

Compound | IC50
CCn1c(-c2cccc(NC(=O)c3ccco3)c2)c(C#N)c2ccc(OC)cc21 [Compound 327] | > 2000 nM
CCn1c(-c2cccc(NC(=O)c3cc(C)on3)c2)c(C#N)c2ccc(OC)cc21 [Compound 328] | > 2000 nM
CCn1c(-c2cccc(NC(C)=O)c2)c(C#N)c2ccc(OC)cc21 [Compound 329] | > 2000 nM
CCn1c(-c2cccc(NC(=O)c3ccc4nonc4c3)c2)c(C#N)c2ccc(OC)cc21 [Compound 330] | > 2000 nM
CCn1c(-c2cccs2)c(C#N)c2ccc(OC)cc21 [Compound 337] | > 2000 nM
CCn1c(-c2cccc3c2oc2ccccc23)c(C#N)c2ccc(OC)cc21 [Compound 338] | > 2000 nM
CCCn1c(-c2ccc(NS(=O)(=O)CC)cc2)cc2ccc(OC)cc21 [Compound 343] | > 2000 nM
CCn1c(-c2cn(Cc3ccccc3)cn2)c(C#N)c2ccc(OC)cc21 [Compound 347] | > 2000 nM
CCn1c(-c2cc[nH]n2)c(C#N)c2ccc(OC)cc21 [Compound 348] | > 2000 nM
C#CCCOC(=O)Nc1cccc(-c2c(C#N)c3ccc(OC)cc3n2CC)c1 [Compound 352] | 500 to 2000 nM
CC#CCOC(=O)Nc1cccc(-c2c(C#N)c3ccc(OC)cc3n2CC)c1 [Compound 354] | 500 to 2000 nM
CCn1c(-c2cccc(NC(=O)OCCl)c2)c(C#N)c2ccc(OC)cc21 [Compound 355] | > 2000 nM
CCn1c(-c2cccc(NC(=O)OCC(C)(C)C)c2)c(C#N)c2ccc(OC)cc21 [Compound 356] | > 2000 nM
CCC(C)OC(=O)Nc1ccc(-c2c(C#N)c3ccc(OC)cc3n2CC)cc1 (stereo not shown) [Compound 357] | > 2000 nM
C#CCOC(=O)Nc1ccc(-c2c(C#N)c3ccc(OC)cc3n2CC)cc1 [Compound 358] | > 2000 nM
C=CC(C)OC(=O)Nc1ccc(-c2c(C#N)c3ccc(OC)cc3n2CC)cc1 (stereo not shown) [Compound 359] | > 2000 nM
C#CCCOC(=O)Nc1ccc(-c2c(C#N)c3ccc(OC)cc3n2CC)cc1 [Compound 360] | > 2000 nM
CCn1c(-c2ccc(S(=O)(=O)NC3CC3)cc2)c(C#N)c2ccc(OC)cc21 [Compound 363] | 500 to 2000 nM
CCn1c(-c2ccc(NS(C)(=O)=O)cc2)c(C#N)c2ccccc21 [Compound 371] | > 2000 nM
CCOC(=O)Nc1ccc(-c2c(C#N)c3ccccc3n2CC)cc1 [Compound 372] | 500 to 2000 nM
CCn1c(-c2cccc(S(N)(=O)=O)c2)c(C#N)c2ccc(OC)cc21 [Compound 373] | > 2000 nM
CCCNS(=O)(=O)c1ccc(-c2c(C#N)c3ccc(OC)cc3n2CC)cc1 [Compound 374] | > 2000 nM
CCn1c(-c2cccc(N)c2)c(C#N)c2ccc(O)cc21 [Compound 376] | > 2000 nM
CCn1c(-c2ccc(C(=O)N3CCCNCC3)cc2)c(C#N)c2ccc(OC)cc21 [Compound 377] | > 2000 nM
CCn1c(-c2ccc(C(=O)Nc3ccc(Cl)c(Cl)c3)cc2)c(C#N)c2ccc(OC)cc21 [Compound 380] | > 2000 nM
CCn1c(-c2ccc(C(=O)Nc3ccc(C)cc3)cc2)c(C#N)c2ccc(OC)cc21 [Compound 381] | > 2000 nM
CCn1c(-c2ccc(C(=O)Nc3ccc(Cl)cc3)cc2)c(C#N)c2ccc(OC)cc21 [Compound 382] | 500 to 2000 nM
CCn1c(-c2cccc(NC(=O)C(C)C)c2)c(C#N)c2ccc(OC)cc21 [Compound 383] | > 2000 nM
CCn1c(-c2ccc(C(=O)NC(C)C)cc2)c(C#N)c2ccc(OC)cc21 [Compound 385] | 500 to 2000 nM

Reference: patent publication US8013006B2
